The numbers were not newly measured in US20140100274A1, “METHODS OF ADMINISTERING COMPOSITIONS COMPRISING DOCOSAPENTAENOIC ACID” (Matinas BioPharma, Inc., priority 2012, published 2014), which cites them from elsewhere.

Each structure is given as a SMILES string.

The conditions of the series: in vivo.

For the molecule `CC[C@H](C)C(=O)O[C@H]1C[C@H](O)C=C2C=C[C@H](C)[C@H](CC[C@@H](O)C[C@@H](O)CC(=O)O)[C@H]21` [pravastatin], the First-pass metabolism entry is reported as “occurs in all statins except pravastatin”.
